Entries after “also recorded” stand apart in the source; their conditions may differ.

In general, EC50 refers to the concentration that produces a half-maximal response.

This assay concerns U2-OS Bmal1-dLuc cells. Nature of the assay: Real-time monitoring of circadian rhythm, U2-OS Bmal1-dLuc. The assay is classed as cell-based, human. The procedure:
This assay was performed with two different equipment: Synergy H1 (BioTek) with 96-well plate and LumiCycle luminometer (Actimetrics) with 35 mm plates. Initial screening of molecules to determine their effect on the circadian period was performed in 96-well plate via Synergy H1. Clear 35-mm plates are used in LumiCycle luminometer which provides high resolution data describing the circadian oscillation. For 96-plate tests, 50000 U2-OS Bmal1-dLuc cells were seeded on an opaque 96-well plate and cultured overnight. Next day cells were reset by adding dexamethasone (DXM) ([…] final) for 2 h. Then medium is changed to bioluminescence recording media which contains the following in 1 L: DMEM powder (sigma D-2902, 10×1 L), 0.35 gr sodium bi-carbonate (tissue culture grade, sigma S5761), 3.5 gr D (+) glucose powder (tissue culture grade, sigma G7021), 10 mL 1M HEPES buffer (Gibco 15140-122), 2.5 mL Pen/Strep (100 ug/ml), 50 mL 5% FBS and up to 1 L sterile milliQ water. Luciferin is added freshly with 0.1 mM final concentration. Molecules were added to the bioluminescence recording media at desired concentration (0.5% final DMSO concentration). Plates were sealed with optically clear film to prevent evaporation and gas exchange thereby to maintain homeostasis of the cells.
Luminescence values were recorded at 32° C. for each 30 minutes with 15 seconds integration time via Synergy H1 luminometer for a week. For LumiCycle, 400×10^3 U2-OS Bmal1-dLuc or NIH3T3 mPer2-dLuc cells were seeded to 35 mm plates and then procedure given above was followed with a change in the last step. Plates were sealed with vacuum grease and placed to LumiCycle. Each plate was recorded continuously every 10 minutes for 70 seconds at 37° C. via photomultiplier tubes. Period and amplitude data were obtained from LumiCycle Analysis software. To detect the effect of FORMULA I in the absence of CRYs, Cry1^−/−/Cry2^−/− mouse embryonic fibroblasts (CRYDKO MEFs) transiently transfected with pGL3-Per2-Luc (luciferase reporter) were used. 3×10^5 CRYDKO cells were seeded in 35 mm clear plates. Next day, cells were transfected with 4000 ng pGL3-Per2-Luc via Fugene6 transfection reagent according to the manufacturer's instruction. In short, 3:1 ratio of Fugene6 in μl against transfected DNA amount in μg was kept in transfections. 72 h after transfection cells were synchronized with DXM for two hours. Then, medium was changed with lumicycle medium having DMSO or molecule, sealed with vacuum grease, and placed to LumiCycle.

Take `Cc1c(C(=O)N2CCc3ccccc32)oc2ccc3c(c12)C(=O)CC(C)(c1ccc(Cl)cc1)O3` (stereo not shown) [FORMULA I, 11-(4-chlorophenyl)-4-(2,3-dihydro-1H-indole-1-carbonyl)-3,11-dimethyl-5,10,dioxatricyclo[7.4.0.0,2,6,]trideca-1,3,6,8-tetraen-13-one]: the EC50 (Homo sapiens, U2OS, U2-OS Bmal1-dLuc, read-out: EC50 of period lengthening and rhythm dampening) is around 6.5 µM. Further, the “activity / dose responsive effect on circadian rhythm” value (U2-OS Bmal1-dLuc) is reported as “showed the best dose responsive effect”. Further, where the note is “dose-dependent”, the “effect on amplitude of the rhythm” value was “dampened the rhythm” and the “effect on period of circadian rhythm” value is “significantly lengthened the period; also recorded: lengthened the circadian rhythm dose dependently”.
